# Reference: BigSolDB 2.1
SMILES,"solubility (mole fraction) (in 2-butanone, 298 K)","solubility (mole fraction) (in 2-butanone, 303 K)","solubility (mole fraction) (in 2-butanone, 308 K)","solubility (mole fraction) (in 2-butanone, 313 K)","solubility (mole fraction) (in 2-butanone, 318 K)","solubility (mole fraction) (in acetonitrile, 298 K)","solubility (mole fraction) (in acetonitrile, 303 K)","solubility (mole fraction) (in acetonitrile, 308 K)","solubility (mole fraction) (in acetonitrile, 313 K)","solubility (mole fraction) (in acetonitrile, 318 K)","solubility (mole fraction) (in isopropanol, 298 K)","solubility (mole fraction) (in isopropanol, 303 K)","solubility (mole fraction) (in isopropanol, 308 K)","solubility (mole fraction) (in isopropanol, 313 K)","solubility (mole fraction) (in isopropanol, 318 K)"
c1ccc2cc3ccccc3cc2c1,0.00477,0.00591,0.00712,0.0085,0.0134,0.00066,0.00093,0.00135,0.00196,0.0027,0.00034,0.00044,0.00061,0.00081,0.00111
O=C1c2ccccc2C(=O)c2ccccc21,0.00054,0.00062,0.00075,0.00087,0.001,0.00022,0.00026,0.00032,0.00039,0.00048,8e-05,0.0001,0.00012,0.00015,0.00018
